In general, IC50 refers to the midpoint of a concentration-inhibition curve.

The subject of experiment [1] is rat aortic smooth muscle cells. As to the kind of experiment: serum-stimulated proliferation, 3H-thymidine incorporation into DNA. To be noted: 10% fetal calf serum stimulated. The experiment is classed as cell-based. On the procedure:
(§1) Inhibition of serum-stimulated proliferation of rat aortic smooth muscle cells is determined as follows: The antiproliferative effect of potential drug is determined by measuring the incorporation of ^3 H-thymidine into cellular DNA. Exposure of quiescent vascular smooth muscle cell to serum, which contains many growth factors, results in a large increase in cellular proliferation as measured by ^3 H-thymidine incorported into DNA. The inhibitory effect of potential drug on serum-stimulated proliferation is tested by adding a drug before the addition of serum and determining if the serum-stimulated proliferation is reduced. […] In that event, antagonizing of the antiproliferative effect of idazoxan is determined by adding antagonist before the addition of idazoxan to serum-stimulated vascular smooth muscle cells.
In this experiment, the proliferation of vascular smooth muscle cells was determined by measuring DNA replication. The incorporation of ^3 H-thymidine into DNA was used to measure the replication of DNA as described in Erlinge, D., et al, Am. J. Physiol. 265, H1089-H1097 (1993) which is incorporated herein by reference.
(§2) Rat aortic smooth muscle cells prepared as described in In Vitro Example 1 were plated into 24-well plates at a density of about 30,000 cells/well in 10% fetal calf serum (FCS). After 48 hours, the cells were starved in 0.5% FCS for another 48 hours to decrease proliferation and induce quiescence. The medium was replaced by serum-free medium 24 hours prior to addition of drug (drugs are described below) and 10% fetal calf serum or only 10% fetal calf serum in the case of the control. The cells were then incubated for 24 hours and ^3 H-thymidine (1 μCi/well) was added at hour 20. At the end of the 24 hour period, the medium was aspirated and the cells were washed three times with phosphate-buffered saline and twice with ice-cold trichloroacetic acid. Fixed cells were then solubilized in 0.2M NaOH and sonicated. A 100 μl aliquot was used for scintillation counting.

Experiment [2] has as its system rat aortic smooth muscle cells. The experiment can be described thus: antagonism of the antiproliferative effect in serum-stimulated smooth muscle cells. The format is cell-based. To be noted: Rattus norvegicus; in presence of tolazoline 100 μM; read-out: IC50 of idazoxan in presence of tolazoline. On the procedure: as §1
as §2, with “After” for “Rat aortic smooth muscle cells prepared as described in In Vitro Example 1 were plated into 24-well plates at a density of about 30,000 cells/well in 10% fetal calf serum (FCS). After”
To test this, the effect of tolazoline (100 μM) on the concentration/response curve was determined.

In experiment [3] the test system is human coronary artery smooth muscle cells. As to the kind of experiment: 3H-thymidine incorporation in normal human coronary artery smooth muscle cells. The format is cell-based. On the procedure:
In this experiment the antiproliferative action of idazoxan was tested in normal human coronary artery smooth muscle cells (Clonetics Corp.). Proliferation of smooth muscle cells was measured as described above by the incorporation of ^3 H-thymidine into cellular DNA. Following the incubation of semi-confluent smooth muscle cells in serum-free medium for 24 hr, growth is stimulated by either 5% fetal calf serum (FCS) or platelet derived growth factor (PDGF) (10 ng/well) in the presence and absence of various concentrations of idazoxan. […] In Table 4, "DPM" stands for disintegrations per minute which is a measure of the radioactivity incorporated into the cellular DNA by 3H-thymidine.
For orientation: Uptake of a labelled nucleoside into DNA is a usual measure of proliferation.

The test system of another experiment is rat carotid artery. As to the kind of experiment: balloon angioplasty of rat left common carotid artery. The experiment is classed as in vivo. As to conditions: 10 mg/kg/24hr for 7 days, s.c. minipump. On the procedure:
To determine the actions of idazoxan in inhibiting the proliferation of vascular smooth muscle cells in vivo, we tested the effect of balloon angioplasty in rat carotid artery. Left common carotid artery balloon angioplasty was performed as described by Ohlstein et al, Proc. Natl. Acad. Sci. 90, 6189-6193 (1993). Rats were implanted, subcutaneously, with Alzet minipumps (1 μl/hr delivery rate) containing idazoxan to deliver a dose of 10 mg/kg/24hr for 7 days. Control rats were implanted with minipumps containing sterile saline. Ballon angioplasty of left common carotid artery was performed on fourth day of idazoxan administration and animals were sacrificed 10 days after the surgery. Left and right common carotid arteries were removed, cross-sections (10 μm) were cut in a cryostat and stained with eosin and hematoxylin. Blood vessel layers were quantitated in an imaging system and the ratio of internal and external diameters were calculated.

A short description of experiment [4]: Example II: patient with narrowing of right common carotid artery, balloon angiography. The experiment is classed as in vivo, human. As to conditions: idazoxan 50 or 75 mg/day two weeks before and 3 months after balloon angiography; UK 14,304 125, cirazoline 60, naphazoline 125, agmatine 900 mg/day. On the procedure:
A person presents with a history of intermittent brief episodes of transient monocular blindness in the right eye associated with clumsiness and weakness of the left arm and leg. Angiography indicates substantial narrowing of the right common carotid artery. They are with treated with idazoxan at a dosage of 50 or 75 mg/day for two weeks preceding balloon angiography and for 3 months thereafter.

Experiment [5] is described as follows: Example III: patient with coronary artery disease, angioplasty. The experiment is classed as in vivo, human. On the procedure:
A person presents with the onset of chest pain on exertion. […] Ten days before angioplasty, the patient is begun on 75 or 100 mg/day of idazoxan. […] Treatment with 50 mg/day idazoxan is continued for 3 months.

Consider `c1ccc2c(c1)OCC(C1=NCCN1)O2` (stereo not shown) [Idazoxan, 2-[2-(1,4-benzodioxanyl)]-2-imidazoline], for which, in experiment [1], the “inhibition of vascular smooth muscle cell proliferation, in words” value was “potently inhibited”. Moreover, the IC50 in experiment [1] (Rattus norvegicus, 24 h, read-out: 3H-thymidine incorporated (IC50)) came out at 4.5 ± 1.4 µM; in experiment [2], 55 µM. In addition, the 3H-thymidine incorporated came to 5540 ± 430 DPM/well in experiment [3] (FCS (5%) + idazoxan 1 μM); 2370 ± 230 DPM/well in experiment [3] (FCS (5%) + idazoxan 10 μM); 430 ± 98 DPM/well in experiment [3] (FCS (5%) + idazoxan 100 μM); 3220 ± 180 DPM/well in experiment [3] (PDGF (10 ng/well) + idazoxan 1 μM); 1890 ± 210 DPM/well in experiment [3] (PDGF (10 ng/well) + idazoxan 10 μM); 340 ± 60 DPM/well in experiment [3] (PDGF (10 ng/well) + idazoxan 100 μM). Moreover, the “incorporation of 3H-thymidine, in words” value in experiment [3] (stimulated by FCS or PDGF) is “inhibited the incorporation of ^3 H-thymidine”. Also, the “internal/external diameter ratio, non-injured right common carotid artery vs control” value in the experiment with rat carotid artery was “no significant difference”. Moreover, the “internal/external diameter ratio of lesion side as percent of control side” value in the experiment with rat carotid artery (10 days after surgery, saline control 21.9 ±3.3) turned out to be 6.5 ±3.4%. Besides, in the experiment with rat carotid artery (injured left common carotid artery), the “lesion side as percent of control side vs saline, in words” value is reported as “significant decrease”. Further, the “symptoms and restenosis of the vessel” value in experiment [4] is on record as “Symptoms disappear without evidence of restenosis of the vessel”. Also, the “symptoms / restenosis after angioplasty” value in experiment [5] (idazoxan 50 mg/day continued for 3 months, substitutes, dose not stated) was “remains symptomless without evidence of restenosis”. In addition, in experiment [5] (idazoxan 75 or 100 mg/day from ten days before angioplasty), the chest pain result is “no further chest pain”.

The values above are taken from patent publication US5574059A, “Treating disorders mediated by vascular smooth muscle cell proliferation” (priority 1995, dated 1996).
